Test results taken from patent publication US6723741B2, “Benzimidazoles and benzothiazoles and uses thereof” (Synaptic Pharmaceutical Corporation, priority 1996, dated 2004).
Like-named read-outs stand apart in the source and are kept apart here.

Assays:
[1] = target: T1, human α2B adrenergic receptor (Homo sapiens, UniProt P18089); experiment: Radioligand binding assay, [3H]rauwolscine competition
T1 construct: expressed in transfected cells
T1 sequence (P18089 1-450): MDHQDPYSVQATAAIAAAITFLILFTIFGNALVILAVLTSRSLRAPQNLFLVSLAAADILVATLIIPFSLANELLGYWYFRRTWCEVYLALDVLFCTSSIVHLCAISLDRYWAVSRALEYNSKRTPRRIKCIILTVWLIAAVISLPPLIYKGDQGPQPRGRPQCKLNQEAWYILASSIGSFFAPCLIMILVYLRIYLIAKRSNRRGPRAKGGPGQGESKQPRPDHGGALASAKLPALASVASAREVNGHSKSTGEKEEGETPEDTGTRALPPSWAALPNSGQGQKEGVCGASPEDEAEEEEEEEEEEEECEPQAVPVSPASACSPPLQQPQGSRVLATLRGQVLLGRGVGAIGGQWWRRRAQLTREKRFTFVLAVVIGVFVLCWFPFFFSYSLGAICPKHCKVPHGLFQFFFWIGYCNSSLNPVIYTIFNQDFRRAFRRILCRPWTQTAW

[2] = target: T2, human α1C adrenergic receptor (Homo sapiens, UniProt P35348); experiment: Radioligand binding assay, [3H]prazosin competition; settings: cloned human α1C (old nomenclature; = α1A), LM(tk-) cell membranes, read-out: pKi Alpha-1 C (converted)
T2 construct: expressed in transfected cells
T2 sequence (P35348 1-466): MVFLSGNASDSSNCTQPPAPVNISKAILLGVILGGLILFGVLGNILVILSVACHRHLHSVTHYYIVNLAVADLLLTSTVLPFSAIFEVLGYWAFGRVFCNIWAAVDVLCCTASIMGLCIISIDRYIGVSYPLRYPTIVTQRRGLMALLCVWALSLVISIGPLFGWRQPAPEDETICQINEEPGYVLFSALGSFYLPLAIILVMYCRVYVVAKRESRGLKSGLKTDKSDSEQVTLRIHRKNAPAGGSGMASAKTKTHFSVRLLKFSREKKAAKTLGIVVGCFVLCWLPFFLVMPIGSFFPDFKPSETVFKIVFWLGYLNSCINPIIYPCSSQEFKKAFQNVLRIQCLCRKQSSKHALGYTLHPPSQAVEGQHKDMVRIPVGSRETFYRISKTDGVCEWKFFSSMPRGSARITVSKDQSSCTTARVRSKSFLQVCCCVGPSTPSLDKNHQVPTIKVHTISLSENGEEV
Description: Equilibrium competition binding assays were performed with membrane preparations from cultured LM(tk^−) cells stably transfected with the cloned human alpha adrenoreceptor subtypes except for α2b, which was expressed in Y-1 cells, using [^3H] prazosin for α1 receptors and [^3H] rauwolscine for α2 receptors. Further details of pharmacological evaluations of claimed compounds are described in Example 21.
The cloned human alpha-1 adrenergic receptor subtypes referred to throughout this application as α1A, α1B, and α1C have recently been assigned new subtype designations by the IUPHAR Nomenclature Committee as outlined in the 1995 Receptor and Ion Channel Nomenclature Supplement (Watson and Girdlestone, 1995). In the new nomenclature system the cloned human α1A receptor referred to herein was given the appellation “α1D,” while the cloned human α1C receptor referred to herein was given the appellation “α1A”. However, throughout this application and the supporting tables and figures the old nomenclature will be used to describe the cloned human alpha-1 adrenergic receptor subtypes. The old nomenclature is used throughout this application because stable cell lines expressing the cloned human alpha-1 adrenergic receptors were produced and deposited with the ATCC according to the Budapest Treaty for the Deposit of Microorganisms, under designations assigned before the nomenclature change.
The entire coding region of α1C (1401 bp), including 400 basepairs of 5′ untranslated sequence (5′ UT) and 200 p of 3′ untranslated sequences (3′ UT), was cloned into the KpnI site of the polylinker-modified pCEXV-3-derived eukaryotic expression vector, EXJ.RH. The construct involved ligation three partial overlapping fragments: a 5′ 0.6 kb HincII genomic clone, a central 1.8 EcoRI hippocampal cDNA clone, and a 3′ 0.6 Kb PstI genomic clone. The hippocampal cDNA fragment overlaps with the 5′ and 3′ genomic clones so that the HincII nad PstI sites at the 5′ and 3′ ends of the cDNA clone, respectively, were utilized for ligation. This full-length clone was cloned into the KpnI site of the expression vector, using the 5′ and 3′ KpnI sites of the fragment, derived from vector (i.e., pBluescript) and 3′-untranslated sequences, respectively. Stable cell lines were produced and selected as described above.
Transfected cells from culture flasks were scraped into 5 mL of 5 mM Tris-HCl, 5 mM EDTA, pH 7.5, and lysed by sonication. The cell lysates were centrifuged at 1000 rpm for 5 min at 4° C., and the supernatant was centrifuged at 30,000×g for 20 min at 4° C. The pellet was suspended in 50 mM Tris-HCl, 1 mM MgCl2, and 0.1% Ascorbic acid at pH 7.5. Binding of α2 antagonist [^3H] rauwolscine ([…]) to membrane preparations of LM(tk−) cells was done in a final volume of 0.25 mL and incubated at 37° C. for 20 min. Nonspecific binding was determined in the presence of 10 μM phentolamine. The reaction was stopped by filtration through GF/B filters using a cell harvester.

[3] = target: T1, human α2B adrenergic receptor; experiment: Agonist activity: inhibition of forskolin-stimulated cAMP synthesis; assay type: cell-based; settings: for I.A (Intrinsic Activity) Alpha-2 B: maximum activity relative to maximum activity induced by norepinephrine, human α2B
[4] = target: T3, human α2A adrenergic receptor (Homo sapiens, UniProt P08913); experiment: as above; settings: for I.A (Intrinsic Activity) Alpha-2 A: maximum activity relative to maximum activity induced by norepinephrine, human α2A
T3 sequence (P08913 1-465): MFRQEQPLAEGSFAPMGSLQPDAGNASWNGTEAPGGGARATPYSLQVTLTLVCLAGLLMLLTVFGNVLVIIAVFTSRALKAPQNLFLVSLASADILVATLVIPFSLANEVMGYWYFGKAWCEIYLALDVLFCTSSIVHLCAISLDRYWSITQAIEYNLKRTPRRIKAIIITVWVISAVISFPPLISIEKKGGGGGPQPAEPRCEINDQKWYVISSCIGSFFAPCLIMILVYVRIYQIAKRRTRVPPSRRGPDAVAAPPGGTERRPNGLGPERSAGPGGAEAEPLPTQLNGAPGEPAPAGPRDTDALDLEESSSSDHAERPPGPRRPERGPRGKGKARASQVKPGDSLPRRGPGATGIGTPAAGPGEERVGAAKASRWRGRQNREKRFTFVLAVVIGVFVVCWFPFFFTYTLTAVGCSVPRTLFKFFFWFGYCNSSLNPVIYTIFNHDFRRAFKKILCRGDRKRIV

[5] = target: T3, human α2A adrenergic receptor; experiment: Radioligand binding assay, [3H]rauwolscine competition; design: expressed in transfected cells
[6] = inhibition of forskolin-stimulated cAMP, stably transfected cells expressing human α2B, read-out: pEC50 Alpha-2 B (converted)

Compound | Ki [1] | Ki [2] | EC50 [3] | I.A (Intrinsic Activity) Alpha-2 B [3] | I.A (Intrinsic Activity) Alpha-2 A [4] | EC50 [3, 6] | Ki [5] | EC50 [4] | Ki ([1]; cloned human α2B, Y-1 cell membranes, [3H]rauwolscine, read-out: pKi Alpha-2 B (converted)) | Ki ([5]; cloned human α2A, LM(tk-) cell membranes, [3H]rauwolscine, read-out: pKi Alpha-2 A (converted))
c1nc2ccc(NC3=NCCN3)cc2s1 [Example 14, 6-(2-Imidazolin-2-ylamino)benzothiazole] | 0.0141 µM | 2.34 µM | 0.0141 µM | 0.47 | 0.51 | – | – | – | – | –
Brc1cc(NC2=NCCN2)cc2cc[nH]c12 [Example 2, 7-Bromo-5-(2-imidazolin-2-ylamino)indole] | 0.00288 µM | 0.0191 µM | – | 0.75 | 0.46 | 0.00191 µM | 0.000724 µM | 0.000437 µM | – | –
CC(=O)c1cc(NC2=NCCN2)cc2cc[nH]c12 [Example 6, 7-Acetyl-5-(2-imidazolin-2-ylamino)indole] | 0.0457 µM | 0.186 µM | – | 0.70 | – | 0.0813 µM | – | – | – | –
c1nc2cc(NC3=NCCN3)ccc2s1 [Example 13, 5-(2-Imidazolin-2-ylamino)benzothiazole] | 0.00457 µM | 0.708 µM | – | 0.82 | 0.98 | 0.0102 µM | 0.00372 µM | 0.0123 µM | – | –
N#Cc1cc(NC2=NCCN2)cc2cc[nH]c12 [Example 5, 7-Cyano-5-(2-imidazolin-2-ylamino)indole] | 0.0155 µM | 1.45 µM | – | 0.60 | – | 0.316 µM | – | – | – | –
c1nc2ccc(NC3=NCCS3)cc2s1 [Example 15, 6-(2-Thiazolin-2-ylamino)benzothiazole] | – | 5.75 µM | – | 0.57 | 0.58 | 0.138 µM | – | 3.09 µM | 0.162 µM | 0.115 µM
